As a reminder, the IC50 is the concentration that inhibits the measured activity by half.

Each structure is given as a SMILES string. Like-named read-outs stand apart in the source and are kept apart here.

Assay [1] addresses T1, RIPK1 (Mus musculus, UniProt Q60855).
T1 construct: endogenous in cells; host or cells: immortalized mouse embryonic fibroblasts (MEFs, C57Bl6/J)
T1 sequence (Q60855 1-656): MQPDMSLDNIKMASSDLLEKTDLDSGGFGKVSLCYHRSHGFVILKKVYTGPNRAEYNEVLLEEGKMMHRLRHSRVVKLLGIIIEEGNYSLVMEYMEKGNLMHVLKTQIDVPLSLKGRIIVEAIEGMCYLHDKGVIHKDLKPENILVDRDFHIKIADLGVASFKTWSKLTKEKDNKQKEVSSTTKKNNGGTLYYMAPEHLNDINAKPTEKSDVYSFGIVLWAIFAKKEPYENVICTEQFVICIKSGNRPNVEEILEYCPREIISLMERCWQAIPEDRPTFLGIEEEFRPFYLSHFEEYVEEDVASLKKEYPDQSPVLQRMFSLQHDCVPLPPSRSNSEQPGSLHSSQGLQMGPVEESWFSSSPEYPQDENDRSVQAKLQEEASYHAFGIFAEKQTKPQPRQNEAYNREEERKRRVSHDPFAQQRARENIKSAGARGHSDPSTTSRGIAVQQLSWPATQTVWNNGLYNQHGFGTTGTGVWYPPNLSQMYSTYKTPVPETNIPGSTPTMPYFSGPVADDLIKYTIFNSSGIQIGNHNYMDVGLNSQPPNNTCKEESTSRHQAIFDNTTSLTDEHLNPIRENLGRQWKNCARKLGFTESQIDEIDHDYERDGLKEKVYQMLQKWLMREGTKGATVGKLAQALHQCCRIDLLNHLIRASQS
The assay is described as follows: RIPK1 autophosphorylation (pS166) by Western blot in MEFs stimulated with hTNF + TAK1i + zVAD.fmk. The note with it: immortalised MEFs, 30 min pretreatment with zVAD.fmk 50 μM, TAK1i 1 μM and compound, hTNF 20 ng/ml for 2.5 h, read-out: RIPK1 inhibition (IC50 estimated from a Western blot). It counts as cell-based. The protocol:
MEFs were seeded in 6-well plates at a density of 300.000 cells/well in 2 mL. The next day, the cells were suspended in 1 mL of medium and pre-treated for 30 min with the indicated compounds at 1/5 dilutions series for PERK ranging from 5 to 0.04 µM and 1 μg/mL of Tm followed by 4 h treatment with 20 ng/mL of hTNF. For RIPK1, the cells were pre-treated at 1/10 dilutions series ranging from 10 to 0.01 nM, 50 µM zVAD.fmk and 1 µM TAKi before stimulation with 20 ng/mL of hTNF for 2.5 h. Then, the cells were washed two times with 1 mL of ice-cold PBS before lysis in 0.2 mL of Laemmli buffer 1x (10% (w/v) SDS, 50% glycerol, 0.5% bromophenol blue, 250 mM Tris–HCl pH 6.8) and 250 mM of dithiothreitol (DTT). The cell lysate was then collected and boiled at 95 °C for 10min and stored at −20°C. Proteins expression was later monitored by immunoblotting.
Activation of PERK was induced by stimulation of the cells with Tunicamycin, as previsouly reported ([Bull and Thiede, 2012]). More precisely, the immortalised MEFs were pre-incubated for 30 min with the analogues 18–34 at different concentrations (0.04, 0.2, 1, and 5 µM) prior to 4 h stimulation with Tunicamycin (1 μg/mL). […] Their activities were evaluated by comparing the intensity of the signal to unstimulated MEFs (considered as zero phosphorylation) and Tunicamycin stimulated cells (considered as 100% PERK phosphorylation). The 12 compounds (18–20, 22–29 and 34) that had lost their inhibitory capacity on PERK were then tested for their ability to inhibit RIPK1 as shown in Figures 6A–H. Activation and autophosphorylation of RIPK1 was induced by stimulating the cells with TNF in the presence of TAK1 inhibitor and of the pan-caspases inhibitor zVAD.fmk, a well established necroptotic trigger ([Vanlangenakker et al., 2011]). The MEFs were pre-incubated for 30 min with the different compounds (0.01 nM–1000 nM) and then stimulated with human TNF (20 ng/mL) for 2.5 h. Similar to the PERK assessment, IC50 values for RIPK1 inhibition were estimated as a range of concentrations, and are reported in Table 1. These experiments provide an estimation of the specificity of our analogues against PERK and RIPK1 in comparison to the benchmark GSK’157 already reported as a potent PERK and RIPK1 inhibitor.

For assay [2], the system named is immortalized MEFs. In words: RIPK1 kinase-dependent necroptosis (hTNF + zVAD.fmk) in MEFs, Sytox Green.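 Also: cell death taken as background-corrected Sytox Green fluorescence relative to the maximal signal of cells fully permeabilized with 0.1% Triton X-100.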 Type of assay: cell-based, mouse. Conditions: Mus musculus, 24 h.
Procedure: In brief, the cells were seeded in duplicate at 10,000 cells per well in a 96-well adherent plate and incubated overnight at 37°C with 5% CO2. […] All the compound stock solutions were prepared in DMSO at 200 µM concentration. After stimulating the cells with human TNF at 20 ng/mL the plate was transferred to the incubator. […] The cell death was calculated by subtracting the background fluorescence from the induced Sytox Green fluorescence and by dividing the obtained result by the maximal fluorescence (minus the background fluorescence) obtained by permeabilization of the cells by using Triton X-100 at a final concentration of 0.1%. Curves were plotted in GraphPad 9 for the IC50 calculation.
Consequently, the compounds were evaluated for their potential protection of RIPK1-mediated necroptosis following human TNF stimulation.

For the compound `Cn1cc(-c2ccc3c(c2F)CCN3C(=O)Cc2ccc(C(F)(F)F)cn2)c2c(N)ncnc21` [Compound 22], the IC50 in assay [1] is 1 to 10 nM; in assay [2] (immortalized MEFs, zVAD-fmk 50 μM + hTNF 20 ng/ml, Sytox Green at 24 h, Table 1 series, read-out: IC50 necroptosis), 2.9 nM; in assay [2] (MEFs, hTNF + zVAD.fmk (20 ng/mL), Table 2, read-out: Necroptosis hTNF + zVAD.fmk MEFs IC50), 1.06 nM.
